Here are results for two compounds from publication PMC8552601, “Entamoeba Chitinase is Required for Mature Round Cyst Formation” (Microbiology Spectrum, 2021).

Common to all, as to assay type: biochemical
Assay [1] deals with T1, Entamoeba invadens chitinase 4 (rEiCht4) (Entamoeba invadens, UniProt A0A0A1TXF4).
T1 construct: gene EIN_136020
In words: 4-MU release by purified recombinant enzyme, specific activity.

Assay [2] deals with T2, Entamoeba invadens chitinase 1 (rEiCht1) (Entamoeba invadens, UniProt A0A0A1U6V8).
T2 construct: gene EIN_404540
T2 sequence (A0A0A1U6V8 entry or part of it): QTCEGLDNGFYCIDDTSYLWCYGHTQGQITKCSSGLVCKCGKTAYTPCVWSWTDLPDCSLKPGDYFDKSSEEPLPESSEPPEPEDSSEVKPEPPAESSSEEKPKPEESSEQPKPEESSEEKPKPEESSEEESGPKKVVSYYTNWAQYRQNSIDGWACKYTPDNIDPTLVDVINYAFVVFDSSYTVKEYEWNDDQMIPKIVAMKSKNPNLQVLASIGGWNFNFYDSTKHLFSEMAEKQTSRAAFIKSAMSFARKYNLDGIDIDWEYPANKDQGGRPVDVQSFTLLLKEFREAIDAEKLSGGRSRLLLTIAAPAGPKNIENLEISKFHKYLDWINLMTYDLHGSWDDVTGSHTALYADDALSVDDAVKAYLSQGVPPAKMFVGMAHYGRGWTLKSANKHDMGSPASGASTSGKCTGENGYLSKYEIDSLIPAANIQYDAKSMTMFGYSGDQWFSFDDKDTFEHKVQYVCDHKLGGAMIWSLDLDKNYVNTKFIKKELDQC
The description is as above.

Assay [3] has as its target T2, Entamoeba invadens chitinase 1 (rEiCht1). In words: fluorogenic 4MU-(GlcNAc)[…] hydrolysis assay with purified recombinant enzyme.
Assay [4] has as its target T1, Entamoeba invadens chitinase 4 (rEiCht4). The description is as above.

SMILES strings stand for the structures.

What is called IC50 is the concentration needed to halve the response being measured.

T1 sequence (A0A0A1TXF4 entry or part of it): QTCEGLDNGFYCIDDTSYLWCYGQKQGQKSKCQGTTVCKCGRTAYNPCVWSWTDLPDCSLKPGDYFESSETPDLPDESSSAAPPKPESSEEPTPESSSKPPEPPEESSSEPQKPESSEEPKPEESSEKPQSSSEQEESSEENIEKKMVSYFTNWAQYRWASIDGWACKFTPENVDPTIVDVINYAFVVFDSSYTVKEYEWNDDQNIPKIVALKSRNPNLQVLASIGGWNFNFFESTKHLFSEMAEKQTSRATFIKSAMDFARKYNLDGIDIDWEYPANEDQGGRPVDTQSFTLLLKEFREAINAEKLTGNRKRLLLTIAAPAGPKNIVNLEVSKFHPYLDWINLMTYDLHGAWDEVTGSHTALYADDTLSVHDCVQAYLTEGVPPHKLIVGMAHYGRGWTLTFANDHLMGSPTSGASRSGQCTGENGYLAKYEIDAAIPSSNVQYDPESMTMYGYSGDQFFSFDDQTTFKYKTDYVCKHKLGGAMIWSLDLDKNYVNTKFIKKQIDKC

Take `CC(=O)N[C@H]1[C@H](Oc2ccc3c(C)cc(=O)oc3c2)O[C@H](CO)[C@@H](O[C@@H]2O[C@H](CO)[C@@H](O[C@@H]3O[C@H](CO)[C@@H](O)[C@H](O)[C@H]3NC(C)=O)[C@H](O)[C@H]2NC(C)=O)[C@@H]1O` [4-methylumbelliferyl β-D-N,N′,N′′-triacetylchitotrioside]: the “4-MU release by purified recombinant enzyme, specific activity” value in assay [1] is given as 6.3 ± 1.1 μmol/min/mg protein; in assay [2], 11.7 ± 5.3 μmol/min/mg protein.
Turning to `Cc1nn(C)c(C)c1NS(=O)(=O)c1c(Cl)cc(-c2ccnc(N3CCNCC3)c2)cc1Cl` [D-B-09, 2,6-dichloro-4-[2-(1-piperazinyl)-4-pyridinyl]-N-(1,3,5-trimethyl-1H-pyrazol-4-yl)-benzenesulfonamide], the 50% inhibitory concentration (IC50) in assay [3] stood at 0.8 ± 0.2 µM; in assay [4], 2.5 ± 1.3 µM.
